{
  "source": "PubChem BioAssay (NCI)",
  "note": "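Test compounds were applied to cells in 96-well plates for 48 hours at 5 doses. TGI is the concentration that stops growth completely.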",
  "data": [
    {"tested_on": "A498 renal", "assay": "NCI anticancer screen, dose series, 48 h", "units": {"TGI": "µM"}, "values": [
      {"smiles": "CC(c1ccccc1)N1CCN(C(C)c2ccccc2)CC1", "note": "(stereo not drawn)", "TGI": "> 100"},
      {"smiles": "CCCCCC#CCOC(=O)C(=[N+]=[N-])P(=O)(c1ccccc1)c1ccccc1", "TGI": "> 10"},
      {"smiles": "COc1ccc(N2C(=O)CC(=O)N(NC(=O)C(C)Oc3ccccc3C)C2=S)cc1", "note": "(stereo not drawn)", "TGI": "> 100"},
      {"smiles": "COc1cc(OC)cc(C(=O)CC(=O)c2cc(OC)cc(OC)c2)c1", "TGI": "> 100"},
      {"smiles": "COc1ccc(C2c3cn[nH]c3CC3CCCCC32)cc1", "note": "(stereo not drawn)", "TGI": 23},
      {"smiles": "O=C1OC(C2Cc3ccc4ccccc4c3C2=O)c2ccccc21", "note": "(stereo not drawn)", "TGI": "> 100"},
      {"smiles": "C/C(=N\\N=C1/C(=O)OC(c2ccccc2)=C1C(=O)c1ccccc1)c1ccc([N+](=O)[O-])cc1", "TGI": "> 100"},
      {"smiles": "O=S(=O)(O)C(CO)c1ccccc1", "note": "(stereo not drawn) (tested in a mixture with another compound)", "TGI": "> 100"},
      {"smiles": "O=C1c2ccccc2C(=O)N1n1c(Cc2ccc([N+](=O)[O-])cc2)n[nH]c1=O", "TGI": "> 100"},
      {"smiles": "COc1ccc(C2OC(c3ccncc3)=NN2C)cc1F", "note": "(stereo not drawn)", "TGI": "> 100"},
      {"smiles": "COC(=O)C(Cc1ccc2c(c1)CCC2)Cc1ccc2c(c1)CCC2", "TGI": "> 100"},
      {"smiles": "NS(=O)(=O)c1ccc(NC(=S)/N=C/C2=C(O)c3ccccc3C2=O)cc1", "TGI": "> 100"},
      {"smiles": "Cc1nc(C)c(C(=O)NNC(=O)C[N+](C)(C)C)cc1C(=O)NNC(=O)C[N+](C)(C)C", "TGI": "> 100"},
      {"smiles": "CNc1cc2c(c3ccccc13)C(CCl)CN2C(=O)c1cc2cc(OC)c(OC)c(OC)c2[nH]1", "note": "(stereo not drawn)", "TGI": 0.00762},
      {"smiles": "O=C(O)CN1CCN2CCCCCN(CC1)CCN(CC(=O)O)CC2", "TGI": "> 100"},
      {"smiles": "Cc1ccc(S(=O)(=O)n2c3c(c4ccccc42)CCN2C[C@H]([C@H](C)Br)CC[C@@H]32)cc1", "TGI": "> 100"},
      {"smiles": "O=c1oc2cc(O)ccc2c(O)c1C(c1ccccc1)c1c(O)c2ccc(O)cc2oc1=O", "TGI": "> 100"},
      {"smiles": "COC1=CC(=O)c2c(c(-c3nc(C)cs3)cn2C)C1=O", "TGI": 28.7},
      {"smiles": "Cc1c(O)nc(-n2[nH]c3c(c2=O)CCCC3)[nH]c1=O", "TGI": "> 100"},
      {"smiles": "CCCNc1ncnc2c1ncn2C", "TGI": 95.1},
      {"smiles": "CCOS(C)(=O)=O", "TGI": "> 100"},
      {"smiles": "CC(C)SC(=S)Sc1c(Cl)c(Cl)nc(Cl)c1Cl", "TGI": 31.5},
      {"smiles": "O=C(O)CN1CCNCCN(CC(=O)O)CCN(CC(=O)O)CCNCC1", "TGI": "> 100"},
      {"smiles": "CCCCCCCCCCCC[S+](C)C", "TGI": 28.1}
    ]},
    {"tested_on": "DU-145 prostate", "assay": "NCI anticancer screen, dose series, 48 h", "units": {"TGI": "µM"}, "values": [
      {"smiles": "CC1=CCC([C@@](C)(O)CCCC(C)(C)N=C=S)CC1", "note": "(stereo partly drawn)", "TGI": 30.7},
      {"smiles": "CCN1CN(c2ccccc2)C2(CCN(CC3COc4ccccc4O3)CC2)C1=O", "note": "(stereo not drawn)", "TGI": "> 100"},
      {"smiles": "C=C1C(=O)CC2C1CC(=O)/C(C)=C/CCC(C)(O)C2O", "note": "(stereo not drawn)", "TGI": 19.7},
      {"smiles": "O=C1C=C/C(=N\\N=C(c2ccccc2)c2ccccc2)O1", "TGI": "> 10"},
      {"smiles": "N[C@@H](Cc1ccccc1)C(=O)N1CCC[C@@H]1P(=O)(Oc1ccccc1)Oc1ccccc1", "TGI": "> 100"},
      {"smiles": "O=c1[nH][nH]c(=O)n1CCCCCCn1c(=O)[nH][nH]c1=O", "TGI": "> 100"},
      {"smiles": "C[C@H](CCC(=O)O)[C@H]1CC[C@H]2[C@@H]3C(=O)C[C@@H]4C[C@H](O)CC[C@]4(C)[C@H]3C[C@H](O)[C@]12C", "TGI": "> 100"},
      {"smiles": "COc1ccc(-c2nc(SCC(=O)NNC(=S)Nc3ccccc3)[nH]c2-c2ccc(OC)cc2)cc1", "TGI": "> 100"},
      {"smiles": "O=C(O)c1ccccc1CC(Cc1ccc2c(c1)CCC2)C(=O)O", "note": "(stereo not drawn)", "TGI": "> 100"},
      {"smiles": "Cn1c(SCc2ccc(F)cc2)nnc1C12CC3CC(CC(C3)C1)C2", "TGI": "> 100"},
      {"smiles": "COC(=O)/C=C\\C(C#N)(C#N)N=Cc1ccc(C)cc1", "TGI": 15.7},
      {"smiles": "CC(c1ccccc1)N1CCN(C(C)c2ccccc2)CC1", "note": "(stereo not drawn)", "TGI": "> 100"},
      {"smiles": "CCCCCC#CCOC(=O)C(=[N+]=[N-])P(=O)(c1ccccc1)c1ccccc1", "TGI": "> 10"},
      {"smiles": "COc1ccc(C(=O)/C=C/c2ccc(OCCCOc3ccc(/C=C/C(=O)c4ccc(OC)cc4)cc3)cc2)cc1", "TGI": "> 100"},
      {"smiles": "COc1ccc(N2C(=O)CC(=O)N(NC(=O)C(C)Oc3ccccc3C)C2=S)cc1", "note": "(stereo not drawn)", "TGI": "> 100"},
      {"smiles": "COc1cc(OC)cc(C(=O)CC(=O)c2cc(OC)cc(OC)c2)c1", "TGI": "> 100"},
      {"smiles": "COc1ccc(C2c3cn[nH]c3CC3CCCCC32)cc1", "note": "(stereo not drawn)", "TGI": 26.3},
      {"smiles": "O=C1OC(C2Cc3ccc4ccccc4c3C2=O)c2ccccc21", "note": "(stereo not drawn)", "TGI": "> 100"},
      {"smiles": "C/C(=N\\N=C1/C(=O)OC(c2ccccc2)=C1C(=O)c1ccccc1)c1ccc([N+](=O)[O-])cc1", "TGI": "> 100"},
      {"smiles": "O=C(O)[C@H]1CCCN1CP(=O)(O)CN1CCC[C@@H]1C(=O)O", "TGI": "> 100"},
      {"smiles": "O=S(=O)(O)C(CO)c1ccccc1", "note": "(stereo not drawn) (tested in a mixture with another compound)", "TGI": "> 100"},
      {"smiles": "O=C1c2ccccc2C(=O)N1n1c(Cc2ccc([N+](=O)[O-])cc2)n[nH]c1=O", "TGI": "> 100"},
      {"smiles": "COc1ccc(C2OC(c3ccncc3)=NN2C)cc1F", "note": "(stereo not drawn)", "TGI": "> 100"},
      {"smiles": "O=C(/C=C/c1ccccc1)Oc1ccc(C(=O)/C=C/c2ccccc2)cc1", "TGI": 14.9},
      {"smiles": "COC(=O)C(Cc1ccc2c(c1)CCC2)Cc1ccc2c(c1)CCC2", "TGI": "> 100"},
      {"smiles": "NS(=O)(=O)c1ccc(NC(=S)/N=C/C2=C(O)c3ccccc3C2=O)cc1", "TGI": "> 100"},
      {"smiles": "Cc1nc(C)c(C(=O)NNC(=O)C[N+](C)(C)C)cc1C(=O)NNC(=O)C[N+](C)(C)C", "TGI": "> 100"},
      {"smiles": "O=C(O)CN1CCN2CCCCCN(CC1)CCN(CC(=O)O)CC2", "TGI": "> 100"},
      {"smiles": "C=C(C(=O)OCC)C(=O)OCC", "TGI": "> 100"}
    ]}
  ]
}
